Test [1] has as its system HTG22 (DNA, G4) AGGGTTAGGGTTAGGGTTAGGG
The test is described as follows: SPR, Langmuir kinetic fit. The note with it: 100 mM KCl; 50 mM Tris-HCl, pH 7.4, 25 °C; highest concentration 20 μM.

The test system of test [2] is HTG21 (DNA, G4) GGGTTAGGGTTAGGGTTAGGG
The test is described as follows: CD titration. The note with it: no added K+ or Na+; 10 mM Tris-HCl, pH 7.4, 25 °C; 5 μM DNA; 0 to 5 mol equiv; induces antiparallel G4.

In test [3] the test system is hairpin duplex DNA (DNA, hairpin) TTTTTTTTTCGAATTCGTTTTTCGAATTCG
The test is described as follows: SPR, Langmuir kinetic fit. The note with it: 100 mM KCl; 50 mM Tris-HCl, pH 7.4, 25 °C; highest concentration 20 μM. (In general: In SPR one partner is held on a chip, and binding of the other changes the refractive index at the surface.)

Test [4] has as its system F21T (DNA, G4) GGGTTAGGGTTAGGGTTAGGG
The test is described as follows: FRET melting. Conditions: 60 mM KCl; 10 mM Tris-HCl, pH 7.4; 0.2 μM DNA; 1 μM compound (Figure S2A).

Data on nine compounds can be found in PMC4742130 (2015).

Molecules are shown by their SMILES.

Regarding `COc1ccc2cc3[n+](cc2c1NCCCN1CCCCC1)CCc1cc2c(cc1-3)OCO2`, the KD (in general, the equilibrium constant for the complex coming apart) in test [1] was 149 µM.
For `COc1ccc2cc3[n+](cc2c1OCCCCCCCl)CCc1cc2c(cc1-3)OCO2`, the binding result in test [2] and in test [1] was “yes” in each case.
`COc1ccc2cc3[n+](cc2c1OCCN)CCc1cc2c(cc1-3)OCO2`: in test [1], the KD was 133 µM.
Take `COc1ccc2cc3[n+](cc2c1OCCCNC(=O)C(N)CCCNC(=N)N)CCc1cc2c(cc1-3)OCO2` (stereo not shown): the KD in test [1] was 10.5 µM; in test [3] it was 13900 µM.
As for `COc1ccc2cc3[n+](cc2c1OCCCNC(=O)C(N)CCCCN)CCc1cc2c(cc1-3)OCO2` (stereo not shown), the KD in test [1] came out at 7.57 µM; in test [3] it was 28900 µM.
On to `COc1ccc2cc3[n+](cc2c1NCCCN1CCCC1)CCc1cc2c(cc1-3)OCO2`, for which the KD in test [1] came out at 29 µM.
For the compound `COc1ccc2cc3[n+](cc2c1OC)CCc1cc2c(cc1-3)OCO2`, the binding entry in test [4] is given as “weak”. In test [1], the KD was determined as 170 µM.
In test [1], `COc1ccc2cc3[n+](cc2c1NCCN1CCCCC1)CCc1cc2c(cc1-3)OCO2` had a KD of 10.8 µM.
Consider `COc1ccc2cc3[n+](cc2c1NCCO)CCc1cc2c(cc1-3)OCO2`, for which, in test [1], the KD is 680 µM.
